Results taken from patent US12593846B2, “Combinations of triazolone herbicides with safeners” (priority 2020, dated 2026).

Tests used:
Assay type in all cases: in vivo
Brachiaria decumbens = assay: % weed control in soybean crop, spray application to soil; parameters: concentration or dose not given beside the values; details: average of 4 replications; for % Weed Control 7 DAA: 7 days after administration; for % Weed Control 14 DAA: 14 days after administration; for % Weed Control 21 DAA: 21 days after administration; for % Weed Control 28 DAA: 28 days after administration; for % Weed Control 35 DAA: 35 days after administration
Source text: (§1) Below table gives summary of the formulation details and application details of Sulfentrazone and Mefenpyr-diethyl, Isoxadifen-ethyl and Cloquintocet-mexyl that were used in combination with Sulfentrazone for treatments. Application method was spray and applications were made to soil.
(§2) Below table gives summary of the formulation details and application details of Sulfentrazone and Dichlormid, Fenclorim, Benoxacor, Flurazole and Fluxofenim that were used in combination with Sulfentrazone for treatments. Application method was spray and applications were made to soil.
Below table gives summary of % weed control shown in soybean crop by untreated check, Sulfentrazone alone and combination of Sulfentrazone with Mefenpyr-diethyl, Isoxadifen-ethyl and Cloquintocet-mexyl at different application rates. % weed control was checked for weed Brachiaria decumbens.
Below table gives summary of % weed control in soybean crop shown by untreated check, Sulfentrazone alone and combination of Sulfentrazone with Dichlormid, Fenclorim, Benoxacor, Flurazole and Fluxofenim at different application rates. % weed control was checked for weed Brachiaria decumbens.

soybean plant = assay: Effect on plant height of soybean plant; details: average of 4 replications; for Plant height 14 DAA: 14 days after administration; for Plant height 28 DAA: 28 days after administration
Procedure: (§3) Experiments were carried out to evaluate the phytotoxicity, effect on plant height and effect on number of plants standing after treatments with combinations of one or more triazolone herbicides with one or more safeners.
as §1, §2
Below table gives summary of effect on plant height of soybean plant shown by untreated check, Sulfentrazone alone and combination of Sulfentrazone with Mefenpyr-diethyl, Isoxadifen-ethyl and Cloquintocet-mexyl at different application rates.
Below table gives summary of effect on plant height of soybean plant shown by untreated check, Sulfentrazone alone and combination of Sulfentrazone with Dichlormid, Fenclorim, Benoxacor, Flurazole and Fluxofenim at different application rates.

soybean plants = assay: Number of soybean plants standing after herbicidal treatment; details: average of 4 replications; for Number of plants standing 14 DAA: 14 days after administration; for Number of plants standing 28 DAA: 28 days after administration
Procedure: as §3, §1, §2
Below table gives summary of effect on number of soybean plants standing after herbicidal treatment shown by untreated check, Sulfentrazone alone and combination of Sulfentrazone with Mefenpyr-diethyl, Isoxadifen-ethyl and Cloquintocet-mexyl at different application rates.
Below table gives summary of effect on number of soybean plants standing after herbicidal treatment shown by untreated check, Sulfentrazone alone and combination of Sulfentrazone with Dichlormid, Fenclorim, Benoxacor, Flurazole and Fluxofenim at different application rates.

[1] = treatments 1-8 (rates in Table 1)
[2] = treatments 9-20 (rates in Table 2)

Row | Structure (SMILES) | % Weed Control 7 DAA (Brachiaria decumbens; [1]) | % Weed Control 14 DAA (Brachiaria decumbens; [1]) | % Weed Control 21 DAA (Brachiaria decumbens; [1]) | % Weed Control 28 DAA (Brachiaria decumbens; [1]) | % Weed Control 35 DAA (Brachiaria decumbens; [1]) | Plant height 14 DAA (soybean plant; [1]) | Plant height 28 DAA (soybean plant; [1]) | Number of plants standing 14 DAA (soybean plants; [1]) | Number of plants standing 28 DAA (soybean plants; [1]) | % Weed Control 7 DAA (Brachiaria decumbens; [2]) | % Weed Control 14 DAA (Brachiaria decumbens; [2]) | % Weed Control 21 DAA (Brachiaria decumbens; [2]) | % Weed Control 28 DAA (Brachiaria decumbens; [2]) | % Weed Control 35 DAA (Brachiaria decumbens; [2]) | Plant height 14 DAA (soybean plant; [2]) | Plant height 28 DAA (soybean plant; [2]) | Number of plants standing 14 DAA (soybean plants; [2]) | Number of plants standing 28 DAA (soybean plants; [2])
1 | Cc1nn(-c2cc(NS(C)(=O)=O)c(Cl)cc2Cl)c(=O)n1C(F)F [Treatment 2] | 100% | 100% | 100% | 100% | 100% | 2.90 | 5.15 | 5.3 | 4.5 | – | – | – | – | – | – | – | – | –
2 | Cc1nn(-c2cc(NS(C)(=O)=O)c(Cl)cc2Cl)c(=O)n1C(F)F [Treatment 10] | – | – | – | – | – | – | – | – | – | 100% | 100% | 100% | 100% | 100% | 6.65 | 10.90 | 5.3 | 5.3
